From paper PMC12114633, “α-Glucosidase Inhibition Mechanism and Anti-Hyperglycemic Effects of Flavonoids from Astragali Radix and Their Mixture Effects” (Pharmaceuticals, 2025)
Where two headings read alike, the source gives them in different places.

Assays:
[1] = system: blood glucose; details: 50 mg/kg, cited from earlier work
[2] = system: normal C57BL/6J mice; assay: Oral sucrose test, postprandial blood glucose; assay type: in vivo; details: for Blood glucose levels: 30 min after sucrose 4 g/kg, n = 8, in mmol/L (unit assumed); for Rate of blood glucose reduction: vs model group, 30 min after sucrose
Description: Male C57BL/6J mice of SPF grade, aged 6–8 weeks and weighing 18–22 g, were obtained from the Experimental Animal Science Department of Peking University. The mice were housed in a controlled environment with a 12:12 light/dark cycle and a constant temperature. They were provided with standard pellet feed and given free access to drinking water. To ensure acclimatization, the mice were allowed to adjust to the diet and housing conditions for one week prior to the experiment. All animal experiments were performed in compliance with the relevant laws and institutional guidelines for the care and use of laboratory animals in China. The experiments were approved by the Laboratory Animal Management and Ethics Committee of Peking University (LA2021443). Additionally, the certification number for the laboratory animal personnel is 1120111300011.
The 16 flavonoids were subsequently evaluated for their potential antihyperglycemic effects by using the oral sucrose test, which is commonly used to evaluate intestinal α-glucosidase inhibition in vivo [62]. Normal C57BL/6J mice were randomly divided into model groups and the 16 flavonoid compound groups (n = 8 per group), respectively. The flavonoids at different concentrations were suspended in 0.5% sodium carboxymethyl cellulose (CMC-Na). […] Fifteen minutes after drug administration, the mice were given a sucrose solution (4 g/kg). Blood samples were collected from the tail vein at 30 min after sucrose loading, and blood glucose levels were measured using an Accu-Chek Performa glucometer (Roche Diagnostics, SN: 79508621393, Shanghai, China). The rate of blood glucose reduction was calculated using the following Formula (4):(4) The rate of blood glucose reduction%=the model blood glucose-the sample blood glucose/the model blood glucose×100%

[3] = target: T1, α-glucosidase (Saccharomyces cerevisiae, UniProt P53341); assay: Inhibitory kinetic analysis (Lineweaver–Burk plot); assay type: biochemical; details: Lineweaver–Burk plots, pNPG 0.31–20 mM
T1 construct: purchased Shanghai Yuanye Biotechnology Co., Shanghai, China Lot No. M23HS178879 (catalogue number not given)
Description: The type of inhibition was determined by using the kinetics curve and the Lineweaver–Burk plot. […] These compounds were incubated with α-glucosidase at 37 °C for 30 min. After incubation, various concentrations of pNPG (0.31–20 mM) were added, and absorbance was measured at 405 nm. The Lineweaver–Burk plot was obtained by plotting 1/[S] on the x-axis and 1/v on the y-axis, where [S] represents substrate concentration and v represents the reaction velocity.

[4] = target: α-glucosidase; details: literature values, reference given; read-out: IC50 in References; cited from earlier work
[5] = target: T1, α-glucosidase; assay: CD spectroscopy, secondary structure of α-glucosidase (BeStSel); details: for β-turn: free enzyme 11.7; for β-sheet: free enzyme 28.8; for random coil: free enzyme 45.2; for α-helix: free enzyme 14.4
Description: CD spectra in the far-UV region (190–250 nm) were scanned by using a CD spectrometer (JASCO-1.5 Tokyo, Japan). […] The slit width was set to 1 nm, and the baseline was calibrated with PBS (phosphate buffered saline). CD spectra were averaged over three scans under a constant nitrogen flow, with the buffer signal subtracted. The results were analyzed using the BeStSel database (https://bestsel.elte.hu/index.php, accessed on 16 May 2025).

[6] = target: T1, α-glucosidase; assay: Mixture effects of flavonoid combinations on α-glucosidase; assay type: biochemical; details: calculated from the dose–response curve
Description: (§1) The α-glucosidase inhibitory effects of flavonoids were evaluated as in a previous report with slight modifications (including changes in the concentrations of the enzyme, substrate, and Na2CO3). Briefly, 50 μL of phosphate-buffered saline (PBS, 0.1 M, pH 6.8), the test compound, and α-glucosidase (0.2 U/mL) were preincubated in a 96-well plate at 37 °C for 10 min. The reaction was then initiated by adding 50 μL of 5 mM pNPG as the substrate. Subsequently, the 96-well plate was incubated for an additional 30 min at 37 °C, then 50 μL of 0.2 M Na2CO3 was added to terminate the reaction. Absorbance was measured at under 405 nm.
The inhibitory activity of the composition was evaluated using the same method described in Section 3.2. […] The combination index (CI, Formula (3)) was subsequently used to assess the interactions between the compounds [60].(2) Y=Bottom+Top−Bottom/1+10^^((LogIC50−X)×HillSlope)
In Formula (3), (D)j represents the concentration of component j in the mixture needed to achieve an effect of x, while (Dx)j denotes the concentration of component j required to produce the same effect when acting alone. Here, x refers to the inhibition rate produced by the composition, and n indicates the number of individual compounds in the composition.

[7] = target: T2, Saccharomyces cerevisiae α-glucosidase (Saccharomyces cerevisiae, UniProt P53341); assay: biochemical; details: 5 mM pNPG, PBS pH 6.8, 37 °C
T2 construct: purchased Shanghai Yuanye Biotechnology Co., Shanghai, China Lot No. M23HS178879 (catalogue number not given)
Description: as §1

[8] = target: T1, α-glucosidase; assay: biochemical; assay type: binding
Description: SPR analysis was performed using the Biacore 8K system (GE Healthcare, Uppsala, Sweden). α-Glucosidase (0.05 mg/mL) was fixed on the CM5 sensor chip by an amine coupling kit. Subsequently, various concentrations of the 16 flavonoids dissolved in 5% DMSO were continuously injected onto the surface of α-glucosidase coated surface. After each sample injection, the sensor chip surface was washed and regenerated with running buffer (PBS) at a flow rate of 30 µL/min. According to the 1:1 Langmuir model, the equilibrium dissociation constant (KD) was calculated by the Biacore evaluation software. For sensorgrams without significant kinetic features, the KD values were calculated using the steady-state analysis.

[9] = molar ratio 10:1, α-glucosidase 4 μM
[10] = molar ratio 40:1, α-glucosidase 4 μM
[11] = molar ratio compound:α-glucosidase 10:1, α-glucosidase 4 μM

T1 sequence (P53341 whole entry): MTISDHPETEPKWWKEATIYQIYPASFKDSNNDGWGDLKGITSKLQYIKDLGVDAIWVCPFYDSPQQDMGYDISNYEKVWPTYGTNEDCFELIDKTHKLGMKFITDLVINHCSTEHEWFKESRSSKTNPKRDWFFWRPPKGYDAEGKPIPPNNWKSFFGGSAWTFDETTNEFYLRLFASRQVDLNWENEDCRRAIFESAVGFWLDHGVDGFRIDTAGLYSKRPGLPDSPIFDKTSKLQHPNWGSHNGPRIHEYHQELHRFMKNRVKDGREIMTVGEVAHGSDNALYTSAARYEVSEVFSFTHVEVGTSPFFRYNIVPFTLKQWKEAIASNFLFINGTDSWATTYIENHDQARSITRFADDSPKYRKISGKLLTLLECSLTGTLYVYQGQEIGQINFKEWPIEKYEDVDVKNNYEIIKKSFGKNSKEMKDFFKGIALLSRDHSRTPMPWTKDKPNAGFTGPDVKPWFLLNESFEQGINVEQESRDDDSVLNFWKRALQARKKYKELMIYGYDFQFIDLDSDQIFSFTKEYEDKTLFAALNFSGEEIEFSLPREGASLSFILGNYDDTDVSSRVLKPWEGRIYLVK
T2 sequence (P53341 whole entry): as above

| SMILES | Blood glucose levels ([2]; 10 mg/kg oral) | Rate of blood glucose reduction ([2]; 10 mg/kg oral) [%] | Blood glucose levels ([2]; 50 mg/kg oral) | Rate of blood glucose reduction ([2]; 50 mg/kg oral) [%] | type of inhibition on α-glucosidase [3] | IC50 [4] [µM] | β-turn [5, 9] [%] | β-sheet [5, 9] [%] | random coil [5, 9] [%] | β-turn [5, 10] [%] | α-helix [5, 10] [%] | β-sheet [5, 10] [%] | random coil [5, 10] [%] | α-helix [5, 11] [%] | IC50 ([7]; IC50, α-glucosidase 0.2 U/mL) [µM] | Kd [8] [µM] | further results |
| --- | --- | --- | --- | --- | --- | --- | --- | --- | --- | --- | --- | --- | --- | --- | --- | --- | --- |
| C[C@@H]1O[C@@H](OC[C@H]2O[C@@H](Oc3cc4c(O)cc(O)cc4[o+]c3-c3ccc(O)cc3)[C@H](O)[C@@H](O)[C@@H]2O)[C@H](O)[C@H](O)[C@H]1O [pelargonidin-3-O-rutinoside] |  |  |  |  |  |  |  |  |  |  |  |  |  |  |  |  | reduction of blood glucose ([1]; ref 52 (Xu et al.)): 18.5% |
| COc1ccc(-c2coc3cc(O[C@@H]4O[C@H](CO)[C@@H](O)[C@H](O)[C@H]4O)ccc3c2=O)cc1O [C16, calycosin-7-O-glucoside] | 15.01 ± 1.15 | 2.75 | 12.78 ± 0.74 | 17.25 | mixed-type inhibitors | 174 | 11.7 | 29.5 | 45.6 | 11.5 | 12.1 | 27.7 | 48.6 | 13.3 | 563 ± 43.6 | 364 | Blood glucose levels ([2]; 25 mg/kg oral): 13.71 ± 0.77; Rate of blood glucose reduction ([2]; 25 mg/kg oral): 11.17%; IC05 [6]: 150.00 µM |
| O=c1c(-c2ccc(O)cc2)coc2cc(O)ccc12 [C11, daidzein] |  |  |  |  | non-competitive inhibitors | 150 | 12.7 | 28.8 | 40.8 | 14.3 | 14.6 | 25.5 | 45.5 | 17.7 | 83.7 ± 20.2 | 20 |  |
| O=c1c(O)c(-c2ccc(O)c(O)c2)oc2cc(O[C@@H]3O[C@H](CO)[C@@H](O)[C@H](O)[C@H]3O)c(O)c(O)c12 [quercetagetin-7-O-glucoside] |  |  |  |  |  |  |  |  |  |  |  |  |  |  |  |  | reduction of blood glucose ([1]; ref 51 (Tian et al.)): 16.7% |
| COc1cc(-c2oc3cc(O)cc(O)c3c(=O)c2OC2OC(CO)C(O)C(O)C2O)ccc1O (stereo not drawn) [C14, isorhamnetin-3-O-glucoside] | 14.84 ± 0.62 | -2.50 | 12.66 ± 0.48 | 12.52 | mixed-type inhibitors | 275 | 12.8 | 33.7 | 40.4 | 15.7 | 7.80 | 19.8 | 56.6 | 13.1 |  |  | Blood glucose levels ([2]; 100 mg/kg oral): 12.19 ± 0.81; Rate of blood glucose reduction ([2]; 100 mg/kg oral): 15.80%; IC50 ([7]; α-glucosidase 0.2 U/mL, read-out: IC50): 228 ± 34 µM; Kd ([8]; kinetic model (1:1 Langmuir), read-out: KD): 383 µM |
